Experimental data: patent publication US10377783B2, “Methods and compounds for enhancing contrast in magnetic resonance imaging (MRI)” (priority 2015, dated 2019)
Read-outs that look alike come from different tables or passages of the source.

How the values were obtained:
[1] = system: male rat (Sprague Dawley Crl:SD); test: In vivo MRI imaging of 2 and 6, T2-weighted scans; settings: for T2-weighted MRI signal intensity, liver: baseline (−10 min) 965; for T2-weighted MRI signal intensity, lean muscle: baseline (−10 min) 2673; for T2-weighted MRI signal intensity, renal cortex: baseline (−10 min) 4759; for T2-weighted MRI signal intensity, renal medulla: baseline (−10 min) 6454; for T2-weighted MRI signal intensity, bladder: baseline (−10 min) 12921; for T2-weighted MRI signal intensity, fat: baseline (−10 min) 14834
Protocol: Compound 1 (aq., 12.5 mM) was injected intravenously into 2 male rats (Sprague Dawley Crl:SD, 312-338 g) at a dosage of 0.02 mmol/kg following anaesthesia with 5% isoflurane. Compound 2 (aq., 6.25 mM) was injected intravenously into 1 male rat (Sprague Dawley Crl:SD, 349 g) at a dosage of 0.01 mmol/kg following anaesthesia with 5% isoflurane. Compound 6 (aq., 6.25 mM) was injected intravenously into 1 male rat (Sprague Dawley Crl:SD, 341 g) at a dosage of 0.01 mmol/kg following anaesthesia with 5% isoflurane. Anesthesia was maintained at 2-2.5% isoflurane through a nose cone for the duration of the scans. Fast-spin-echo images were collected for 45 mins. immediately post-injection. For compound 1, the DT1-weighted RARE (Rapid Acquisition Relaxation Enhancement) scans were acquired with an echo time of 10 ms, and a repetition time=respiratory cycle duration (˜1100 ms). Both T1- and T2-weighted scans were collected on compounds 2 and 6.
The in vivo contrast potential of compounds 1, 2 and 6 were studied via the collection of fast-spin-echo images for 30-45 minutes immediately following injection of an aqueous solution of each complex. The dosage chosen for 1 was 0.02 mmol/kg (c=[…]) while the dosage chosen for 2 and 6 was 0.01 mmol/kg (c=6.25 mM). Predominantly T1-weighted scans with some T2-weighting were performed on two rats injected with 1.
Both T1- and T2-weighted scans were performed on two rats injected with 2 and its dimeric analogue 6.

[2] = system: primary rat renal proximal tubule epithelial cells (RPTECs); test: In vitro toxicity, MTT assay; assay type: cell-based; settings: for IC50: rat RPTECs, MTT, read-out: Inhibitory concentration IC50; for cytotoxicity: 10 h time point, compared with 4 h
Protocol: Gadodiamide (Selleckchem, Lot #02) was used as the reference compound. It is one of the 8 Gd(III)-based MRI agents approved for use in Canada (trade name: Omniscan™).
The test articles and reference compound were weighed and dissolved in the incubation medium to give the highest test concentration of 30 mM. The solution was filter sterilized and diluted to the remaining test concentrations of 10 mM, 3.3 mM, 1.1 mM, 0.36 mM, 0.12 mM and 0.04 mM.
Cryopreserved primary rat renal proximal tubule epithelial cells (RPTECs) (ScienCell Research Laboratories, Carlsbad, Calif.) were used for the study. The rat RPTECs were thawed completely at 37° C., and transferred to epithelial cell medium (ScienCell Research Laboratories, Carlsbad, Calif.) followed by plating in poly-L-lysine coated 96-well plates. The RPTECs were allowed to recover and grow in a cell culture incubator (37° C., humidified atmosphere of 5% carbon dioxide and 95% air) for 3 additional days with a medium change every alternate day.
Following 3 days of plating, the RPTECs were washed once with serum free epithelial cell medium (ScienCell Research Laboratories, Carlsbad, Calif.) followed by treatment with the test, reference or control articles for 2, 4, 10 or 24 h. All treatments were performed in triplicate.
Cellular viability and metabolic activity were assessed by using the 3-(4,5-dimethylthiazol-2-yl)-2,5-diphenyl tetrazolium bromide (MTT) uptake assay. A 10× stock of the MTT dye was prepared in phosphate buffered saline (PBS). An aliquot of dye was added 2 hrs before the intended time point to achieve a final 1× concentration, after which incubation (37° C., humidified atmosphere of 5% carbon dioxide and 95% air) continued until the desired time point. For the 2 hr time point, the aliquot of dye was added immediately after the test articles. Following incubation, all media was aspirated from the wells and the plates were allowed to dry. The resulting formazan crystals were dissolved in DMSO using an orbital shaker, and the absorbance at 570 nm was measured using a Victor ^3V multilabel plate reader (reference wavelength=650 nm).
The inhibitory concentration (IC50, the concentration resulting in 50% toxicity) was determined by plotting log concentration vs. relative viability, followed by non-linear regression of the curve using Graph Pad Prism 5.0.
An in vitro toxicity study was performed in order to evaluate the cytotoxic potential of several of the agents in primary rat renal proximal tubule epithelial cells (RPTECs), prior to performing in vivo studies. The Mn^II and Gd^III complexes of L1, L2 and L6 (complexes 1, 2, 5, and 7-9) were evaluated at seven concentrations (30 mM, 10 mM, 3.3 mM, 1.1 mM, 0.36 mM, 0.12 mM and 0.04 mM) after 2, 4, 10 and 24 hours of treatment in rat RPTECs. The MTT assay was used as an indicator of viability. The nephrotoxic potential of the test articles was compared to the toxicity observed in the presence of the approved agent Gadodiamide. The results are summarized in Table 4, where the inhibitory concentration (IC50, the concentration resulting in 50% toxicity) was determined by plotting log concentration vs. relative viability.

[3] = Relaxivity measurements (T1 and T2 relaxation times, Bruker minispec mq60/mq20); assay type: physicochemical; settings: aqueous solution, 37° C.
Protocol: T1 and T2 relaxation times were measured at the STTARR Innovation Centre in Toronto, Canada using a Bruker minispec mq60, and at the Bruker Showroom in Milton, Canada using a Bruker minispec mq20. Measurements were carried out on a series of 6 aqueous dilutions between 0-5 mM.
The T1 and T2 relaxation times of the 8 soluble, pure complexes were measured in aqueous solution at 37° C., at both 20 and 60 MHz.

[4] = 8 min after injection of 2, 0.01 mmol/kg iv
[5] = 22 min after injection of 2, 0.01 mmol/kg iv
[6] = 37 min after injection of 2, 0.01 mmol/kg iv
[7] = injection of 2, 0.01 mmol/kg iv, first 40 min

Structure (SMILES): CC1=NCCOCCOCCN=C(C)c2cccc1n2.O.O.[Cl-].[Cl-].[Mn+2] [Compound 2, [MnL2Cl2].2H2O]
- T2-weighted MRI signal intensity, liver [1, 4]: 788 arbitrary units of voxel intensity
- T2-weighted MRI signal intensity, lean muscle [1, 4]: 2386 arbitrary units of voxel intensity
- T2-weighted MRI signal intensity, renal cortex [1, 4]: 3367 arbitrary units of voxel intensity
- T2-weighted MRI signal intensity, renal medulla [1, 4]: 5342 arbitrary units of voxel intensity
- T2-weighted MRI signal intensity, bladder [1, 4]: 7977 arbitrary units of voxel intensity
- T2-weighted MRI signal intensity, fat [1, 4]: 14550 arbitrary units of voxel intensity
- T2-weighted MRI signal intensity, liver [1, 5]: 577 arbitrary units of voxel intensity
- T2-weighted MRI signal intensity, lean muscle [1, 5]: 2451 arbitrary units of voxel intensity
- T2-weighted MRI signal intensity, renal cortex [1, 5]: 3307 arbitrary units of voxel intensity
- T2-weighted MRI signal intensity, renal medulla [1, 5]: 5306 arbitrary units of voxel intensity
- T2-weighted MRI signal intensity, bladder [1, 5]: 667 arbitrary units of voxel intensity
- T2-weighted MRI signal intensity, fat [1, 5]: 12923 arbitrary units of voxel intensity
- T2-weighted MRI signal intensity, liver [1, 6]: 400 arbitrary units of voxel intensity
- T2-weighted MRI signal intensity, lean muscle [1, 6]: 2377 arbitrary units of voxel intensity
- T2-weighted MRI signal intensity, renal cortex [1, 6]: 3034 arbitrary units of voxel intensity
- T2-weighted MRI signal intensity, renal medulla [1, 6]: 4215 arbitrary units of voxel intensity
- T2-weighted MRI signal intensity, bladder [1, 6]: 512 arbitrary units of voxel intensity
- T2-weighted MRI signal intensity, fat [1, 6]: 13440 arbitrary units of voxel intensity
- Max. intensity change, T2-weighted, bladder [1, 7]: −96%
- Max. intensity change, T2-weighted, fat [1, 7]: −13%
- Max. intensity change, T2-weighted, lean muscle [1, 7]: −11%
- Max. intensity change, T2-weighted, liver [1, 7]: −59%
- Max. intensity change, T2-weighted, renal cortex [1, 7]: −36%
- Max. intensity change, T2-weighted, renal medulla [1, 7]: −35%
- IC50 ([2]; 2 hr treatment): 3.88 mM
- IC50 ([2]; 4 hr treatment): 2.56 mM
- IC50 ([2]; 10 hr treatment): 14.7 mM
- cytotoxicity [2]: exhibited a slight reduction in toxicity
- IC50 ([2]; 24 hr treatment): 0.68 mM
- r1 relaxivity ([3]; 20 MHz): 3.58 s⁻¹ mM⁻¹
- r1 relaxivity ([3]; 60 MHz): 2.78 s⁻¹ mM⁻¹

Structure (SMILES): CC1=NCCNCCNCCN=C(C)c2cccc1n2.O.O.[Cl-].[Cl-].[Mn+2] [Compound 1, [MnL1Cl2].2H2O]
- nephrotoxicity ([2]; 2 and 4 h of treatment, 0.04-30 mM): did not show significant nephrotoxicity
- cytotoxicity [2]: did not display significant cytotoxicity
- nephrotoxic effects ([2]; 24 h of treatment): exhibiting the least nephrotoxic effects
- IC50 ([2]; 24 hr treatment): 5.47 mM
- r1 relaxivity ([3]; 20 MHz): 3.78 s⁻¹ mM⁻¹
- r1 relaxivity ([3]; 60 MHz): 2.76 s⁻¹ mM⁻¹
